US20070004760A1, “Fungicide mixtures for the control of rice pathogens” (priority 2003, published 2007)
Values joined by “and” are separate entries in the source; they are usually repeats but may differ in a detail not shown here. Identical values can stand only once. Like-named read-outs stand apart in the source and are kept apart here.

Experiments:
Pyricularia oryzae = type: in vivo; conditions: individual active compound, rice 'Tai-Nong 67', protective, 6 days, untreated control 60% infection
Cochliobolus miyabeanus = assay: Activity against brown spot of rice caused by Cochliobolus miyabeanus, protective application; type: in vivo

Structure (SMILES)	Efficacy in % of the untreated control (Pyricularia oryzae; 16 ppm in the spray liquor) [%]	Efficacy in % of the untreated control (Cochliobolus miyabeanus; individual active compound, 4 ppm in the spray liquor, rice 'Tai-Nong 67', protective, six days, untreated control 90% infection) [%]	Efficacy in % of the untreated control (Cochliobolus miyabeanus; individual active compound, 16 ppm in the spray liquor, rice 'Tai-Nong 67', protective, six days, untreated control 90% infection)	Efficacy in % of the untreated control (Pyricularia oryzae; 4 ppm in the spray liquor) [%]	Efficacy in % of the untreated control (Cochliobolus miyabeanus; in vivo) [%]
CC1CCN(c2c(-c3c(F)cccc3Cl)c(Cl)nc3ncnn23)CC1 [Comparison A]	59	–	–	–	–
C[C@H](Nc1c(-c2c(F)cc(F)cc2F)c(Cl)nc2ncnn12)C(F)(F)F [Comparison B]	67	–	–	–	–
CC1CCN(c2c(-c3c(F)cc(F)cc3F)c(Cl)nc3ncnn23)CC1 [I, 5-chloro-7-(4-methylpiperidin-1-yl)-6-(2,4,6-trifluorophenyl)-[1,2,4]triazolo[1,5-a]pyrimidine]	67	33	33% and 56%	–	–
CO/N=C(/C(=O)OC)c1ccccc1CO/N=C(\C)c1cccc(C(F)(F)F)c1 [II (trifloxystrobin), methyl (E)-methoxyimino-{(E)-α-[1-(α,α,α-trifluoro-m-tolyl)ethylideneaminooxy]o-tolyl}acetate]	2	–	–	2	0
